# Like-named read-outs stand apart in the source and are kept apart here.
# How the values were obtained:
# [1] = biological target: mouse ENPP1 (Mus musculus (Mouse), UniProt P06802); assay: ENPP1 enzyme activity assay using cGAMP as substrate (luciferase detection of AMP); format: biochemical
# [2] = system: CD14+ PBMCs; assay: Stimulation of CD14+ PBMCs with extracellular cGAMP (IFNB1 RT-qPCR); format: cell-based, human; details: submicromolar soluble cGAMP
# [3] = system: 4T1-Luc tumors; assay: 4T1-Luc tumor mouse model (tumor volume, survival)
# [4] = ENPP1 enzyme activity, second activity table (titled TABLE 2, Compounds; column without head), read-out: IC50
# mouse ENPP1, sequence (P06802 85-906): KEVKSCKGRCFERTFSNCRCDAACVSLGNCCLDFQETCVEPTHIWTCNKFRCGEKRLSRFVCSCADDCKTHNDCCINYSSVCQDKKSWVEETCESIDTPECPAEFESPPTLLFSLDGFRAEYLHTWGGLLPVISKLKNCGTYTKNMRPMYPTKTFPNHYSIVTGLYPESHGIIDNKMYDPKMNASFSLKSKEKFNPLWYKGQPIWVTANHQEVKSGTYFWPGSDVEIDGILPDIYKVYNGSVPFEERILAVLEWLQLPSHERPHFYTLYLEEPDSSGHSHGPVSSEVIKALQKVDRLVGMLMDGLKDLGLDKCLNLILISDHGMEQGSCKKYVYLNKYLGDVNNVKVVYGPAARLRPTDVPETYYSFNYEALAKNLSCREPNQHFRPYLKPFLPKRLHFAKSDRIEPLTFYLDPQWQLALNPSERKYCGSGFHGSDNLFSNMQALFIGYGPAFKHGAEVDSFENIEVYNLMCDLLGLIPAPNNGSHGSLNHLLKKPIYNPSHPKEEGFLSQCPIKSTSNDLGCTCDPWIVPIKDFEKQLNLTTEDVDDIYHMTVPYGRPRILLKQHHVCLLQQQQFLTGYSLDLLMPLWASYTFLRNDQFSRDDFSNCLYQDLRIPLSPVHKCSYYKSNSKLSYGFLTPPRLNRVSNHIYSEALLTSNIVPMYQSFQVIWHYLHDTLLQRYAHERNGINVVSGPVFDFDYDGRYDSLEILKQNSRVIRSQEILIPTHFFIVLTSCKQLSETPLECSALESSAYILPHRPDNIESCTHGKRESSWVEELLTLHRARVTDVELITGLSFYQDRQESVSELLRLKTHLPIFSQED
"IC50 [1, 4] [µM]",Compound,IC50 [1] [µM],further results
0.05 to 0.1,COc1ccc2ncc(C#N)c(N3CCC(CCP(=O)(O)O)CC3)c2c1 [Compounds 44],–,–
> 0.1,COc1cccc2c(N3CCC(CCP(=O)(O)O)CC3)c(C#N)c(/C=C\c3cccnc3)nc12 [Compounds 206],–,–

# The next lines start with the molecule.
Compound,"IC50 [1, 4] [µM]",IC50 [1] [µM],further results
COc1cc2ncnc(Nc3ccc(CP(=O)(O)O)cc3)c2cc1OC [Compound 3],–,–,"IC50 ([1]; ENPP1 enzyme activity, Table 4, read-out: IC50): 0.05 to 0.1 µM"
COc1cc2ncnc(NCc3ccc(OP(O)(O)=S)cc3)c2cc1OC [Compound 7],–,0.05 to 0.1,–
COc1cc2ncc(C#N)c(N3CCC(CCOP(O)(O)=S)CC3)c2cc1OC [Compounds 202],–,0.05 to 0.1,–
"Nc1nc2c(ncn2[C@@H]2O[C@@H]3COP(=O)(O)O[C@H]4[C@@H](O)[C@H](n5cnc6c(N)ncnc65)O[C@@H]4COP(=O)(O)O[C@@H]2[C@@H]3O)c(=O)[nH]1 [cGAMP, cyclic guanosine monophosphate-adenosine monophosphate]",–,–,"IFNB1 response [2]: upregulating IFNB1; effect over IR treatment ([3]; 20 Gy IR + intratumoral 10 μg cGAMP alone): had no effect over IR treatment; mice cured ([3]; ENPP1−/− 4T1-Luc tumors, 20 Gy IR + intratumoral cGAMP, no anti-CTLA-4): 30%"

# From patent US20250059218A1, “ENPP1 Inhibitors and Methods of Modulating Immune Response” (The Board of Trustees of the Leland Stanford Junior …, priority 2019, published 2025)
